The numbers were not newly measured in patent US20170252312A1, “PREPARATIONS FOR TREATMENT AND PREVENTION OF ALCOHOL FLUSHING AND ALCOHOL-INDUCED HYPERSENSITIVITY REACTIONS” (BIOHIT OYJ, priority 2014, published 2017), which cites them from elsewhere.

For data set [1], the system named is human mast cells.
Data set [2] deals with rat mast cells.
The subject of data set [3] is ADH enzyme. Conditions: ALDH2-deficient individuals.
The subject of data set [4] is microbial acetaldehyde formation from ethanol.

In the case of `CC=O` [Acetaldehyde], the histamine release entry in data set [1] and in data set [2] was “enhance histamine release” each time.

With `Cc1cn[nH]c1` [4-MP, 4-methylpyrazole], in data set [3], the “alcohol-induced increase in salivary acetaldehyde levels” value is given as “markedly decrease” and the “flushing response to alcohol” value is reported as “suppressed also significantly”. For the same molecule, the “increase in heart rate and skin temperature and drop in diastolic blood pressure” value in data set [3] (4-MP used before ethanol intake) was “disappeared”.

Regarding `OC[C@@H](O)[C@H](O)[C@@H](O)CO` [xylitol], the “inhibition of microbial acetaldehyde formation from ethanol” value in data set [4] is recorded as “inhibit microbial acetaldehyde formation from ethanol”.
